Assay results: ChEMBL document CHEMBL1201862, “PubChem BioAssay data set” (2004)
The source made the active and inactive calls.

Tests used:
[1] = molecular target: T1, Short transient receptor potential channel 4 (Mus musculus, UniProt Q9QUQ5); assay: SAR Analysis for the identification of selective inhibits of the transient receptor potential cation channel C4 (TRPC4): Automated Electrophysiology_2. [Related pubchem assays (depositor defined):AID2256]; format: functional
T1 sequence (Q9QUQ5 whole entry): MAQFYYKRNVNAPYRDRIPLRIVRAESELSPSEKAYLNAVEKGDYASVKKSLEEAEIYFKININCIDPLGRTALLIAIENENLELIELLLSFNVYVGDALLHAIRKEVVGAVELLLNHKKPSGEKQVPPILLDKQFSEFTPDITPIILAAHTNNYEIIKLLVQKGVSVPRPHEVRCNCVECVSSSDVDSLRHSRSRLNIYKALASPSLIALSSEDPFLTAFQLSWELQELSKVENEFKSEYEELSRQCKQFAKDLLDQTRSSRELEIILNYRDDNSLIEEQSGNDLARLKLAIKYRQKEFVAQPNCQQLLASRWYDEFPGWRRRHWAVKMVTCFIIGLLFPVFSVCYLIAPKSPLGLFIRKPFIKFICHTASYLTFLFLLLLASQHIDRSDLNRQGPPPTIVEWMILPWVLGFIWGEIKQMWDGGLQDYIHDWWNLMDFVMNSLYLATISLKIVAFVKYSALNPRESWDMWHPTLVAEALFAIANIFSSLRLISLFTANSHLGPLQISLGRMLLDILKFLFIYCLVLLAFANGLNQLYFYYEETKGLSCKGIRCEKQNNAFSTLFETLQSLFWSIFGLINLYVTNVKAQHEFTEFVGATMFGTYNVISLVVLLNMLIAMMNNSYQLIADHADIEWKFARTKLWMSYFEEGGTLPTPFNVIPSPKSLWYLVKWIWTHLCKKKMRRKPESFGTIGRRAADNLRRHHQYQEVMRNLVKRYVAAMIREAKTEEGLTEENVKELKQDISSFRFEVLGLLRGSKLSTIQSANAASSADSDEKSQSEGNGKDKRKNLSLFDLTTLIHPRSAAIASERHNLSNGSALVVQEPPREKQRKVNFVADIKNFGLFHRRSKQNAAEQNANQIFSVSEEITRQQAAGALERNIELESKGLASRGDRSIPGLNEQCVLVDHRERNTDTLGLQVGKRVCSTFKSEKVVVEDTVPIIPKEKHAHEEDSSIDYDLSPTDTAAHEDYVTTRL

[2] = molecular target: T1, Short transient receptor potential channel 4; assay: potency of mouse TRPC4 calcium flux blockers – cell-based, HEK293 TRPC4/mu-opioid, DAMGO stimulus, Fluo-4, dose response (AID 492994); format: functional
A-375 = assay: proliferation inhibition in MITF-low A375 cells – cell-based, cherry-pick samples, set 2, counter-screen for MITF modulator project, dose response (AID 540335); format: functional; conditions: Homo sapiens
Trypsin = Trypsin (Sus scrofa, UniProt P00761); assay: trypsin protease activity blockade – biochemical, quenched peptide fluorescence, cherry-pick, selectivity assay for Rce1 protease inhibitor project, dose response (AID 488789)
CAAX prenyl protease 2 = CAAX prenyl protease 2 (Homo sapiens, UniProt Q9Y256); assay: inhibition of Ras-converting CAAX protease Rce1 – biochemical, yeast membranes, quenched-peptide fluorescence, cherry-pick, dose response (AID 588849)
Beta-galactosidase = Beta-galactosidase (Escherichia coli, UniProt Q8VNN2); assay: PubChem AID 485352; format: functional
[3] = molecular target: T2, Type-1 angiotensin II receptor (Homo sapiens, UniProt P30556); assay: antagonism of angiotensin II type 1 receptor – cell-based, uHTS hits, selectivity assay for APJ receptor antagonist project, dose response (AID 463214); format: functional;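 also: antagonist potency against angiotensin II stimulated AT1 response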
T2 sequence (P30556 whole entry): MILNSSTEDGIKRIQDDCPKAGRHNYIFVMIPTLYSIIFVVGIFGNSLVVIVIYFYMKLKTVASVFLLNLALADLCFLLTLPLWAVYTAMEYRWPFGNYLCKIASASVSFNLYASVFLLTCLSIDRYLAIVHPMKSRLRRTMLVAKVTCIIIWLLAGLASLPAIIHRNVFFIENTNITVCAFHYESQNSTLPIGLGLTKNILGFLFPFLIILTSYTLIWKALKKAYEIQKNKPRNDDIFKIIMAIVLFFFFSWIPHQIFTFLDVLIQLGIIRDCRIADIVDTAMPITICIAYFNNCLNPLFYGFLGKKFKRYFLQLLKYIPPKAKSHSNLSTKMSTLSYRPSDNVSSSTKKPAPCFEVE

[4] = reduction of Shn3 3'UTR-driven luciferase in osteoblasts – cell-based, Clone20 osteoblasts, firefly luciferase, cherry-picked, dose response (AID 624132); format: functional;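 also: firefly luciferase luminescence from reporter carrying the Shn3 3'UTR in osteoblasts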
[5] = loss of viability in HepG2 cells – cell-based, CellTiter-Glo, cherry-picked, cytotoxicity control for Shn3 inhibitor project, dose response (AID 624134); format: functional
[6] = Fluorescence-based cell-based high throughput dose response assay for inhibitors of the interaction of nucleotide-binding oligomerization domain containing 2 (NOD2) and the receptor-interacting serine-threonine kinase 2 (RIPK2).; format: functional; conditions: Homo sapiens
HEK293 [7] = assay: cells; conditions: Homo sapiens
HEK293 [8] = assay: cells; conditions: Homo sapiens; remark: listed apart in the source
Hexokinase-1 [9] = molecular target: T3, Hexokinase-1 (Homo sapiens, UniProt P19367); assay: hexokinase 1 activity inhibitors, potency – biochemical, set 2, resazurin fluorescence coupled readout, selectivity assay for HKDC1 inhibitor project, SAR follow-up (AID 588356); format: functional
T3 sequence (P19367 whole entry): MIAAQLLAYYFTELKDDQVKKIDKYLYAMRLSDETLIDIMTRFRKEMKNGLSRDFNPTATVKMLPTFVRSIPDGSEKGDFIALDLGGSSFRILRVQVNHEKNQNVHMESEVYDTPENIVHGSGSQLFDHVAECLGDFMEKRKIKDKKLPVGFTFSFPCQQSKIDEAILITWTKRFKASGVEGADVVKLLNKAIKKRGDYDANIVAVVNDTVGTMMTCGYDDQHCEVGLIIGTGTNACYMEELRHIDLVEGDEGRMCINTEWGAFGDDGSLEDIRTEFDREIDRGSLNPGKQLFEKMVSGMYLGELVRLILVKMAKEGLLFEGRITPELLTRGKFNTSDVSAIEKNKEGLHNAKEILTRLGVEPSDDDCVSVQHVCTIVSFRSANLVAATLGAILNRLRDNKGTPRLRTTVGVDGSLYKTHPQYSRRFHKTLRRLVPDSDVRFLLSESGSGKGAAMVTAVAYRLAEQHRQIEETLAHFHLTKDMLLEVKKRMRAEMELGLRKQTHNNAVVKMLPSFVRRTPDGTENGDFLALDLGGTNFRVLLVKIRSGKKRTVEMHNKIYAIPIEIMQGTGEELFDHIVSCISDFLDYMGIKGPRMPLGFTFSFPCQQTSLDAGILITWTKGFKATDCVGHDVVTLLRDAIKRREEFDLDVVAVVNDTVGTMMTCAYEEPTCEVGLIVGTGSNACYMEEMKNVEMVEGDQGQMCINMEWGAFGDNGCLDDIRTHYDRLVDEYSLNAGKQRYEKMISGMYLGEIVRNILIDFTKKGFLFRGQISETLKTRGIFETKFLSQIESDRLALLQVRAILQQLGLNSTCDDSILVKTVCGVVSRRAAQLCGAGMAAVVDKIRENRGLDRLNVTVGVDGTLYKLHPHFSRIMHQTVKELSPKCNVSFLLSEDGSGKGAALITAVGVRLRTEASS

Hexokinase HKDC1 [10] = molecular target: T4, Hexokinase HKDC1 (Homo sapiens, UniProt Q2TB90); assay: analog inhibition of human HKDC1 activity – biochemical, set 2, SAR follow-up (AID 588355); format: functional
T4 sequence (Q2TB90 whole entry): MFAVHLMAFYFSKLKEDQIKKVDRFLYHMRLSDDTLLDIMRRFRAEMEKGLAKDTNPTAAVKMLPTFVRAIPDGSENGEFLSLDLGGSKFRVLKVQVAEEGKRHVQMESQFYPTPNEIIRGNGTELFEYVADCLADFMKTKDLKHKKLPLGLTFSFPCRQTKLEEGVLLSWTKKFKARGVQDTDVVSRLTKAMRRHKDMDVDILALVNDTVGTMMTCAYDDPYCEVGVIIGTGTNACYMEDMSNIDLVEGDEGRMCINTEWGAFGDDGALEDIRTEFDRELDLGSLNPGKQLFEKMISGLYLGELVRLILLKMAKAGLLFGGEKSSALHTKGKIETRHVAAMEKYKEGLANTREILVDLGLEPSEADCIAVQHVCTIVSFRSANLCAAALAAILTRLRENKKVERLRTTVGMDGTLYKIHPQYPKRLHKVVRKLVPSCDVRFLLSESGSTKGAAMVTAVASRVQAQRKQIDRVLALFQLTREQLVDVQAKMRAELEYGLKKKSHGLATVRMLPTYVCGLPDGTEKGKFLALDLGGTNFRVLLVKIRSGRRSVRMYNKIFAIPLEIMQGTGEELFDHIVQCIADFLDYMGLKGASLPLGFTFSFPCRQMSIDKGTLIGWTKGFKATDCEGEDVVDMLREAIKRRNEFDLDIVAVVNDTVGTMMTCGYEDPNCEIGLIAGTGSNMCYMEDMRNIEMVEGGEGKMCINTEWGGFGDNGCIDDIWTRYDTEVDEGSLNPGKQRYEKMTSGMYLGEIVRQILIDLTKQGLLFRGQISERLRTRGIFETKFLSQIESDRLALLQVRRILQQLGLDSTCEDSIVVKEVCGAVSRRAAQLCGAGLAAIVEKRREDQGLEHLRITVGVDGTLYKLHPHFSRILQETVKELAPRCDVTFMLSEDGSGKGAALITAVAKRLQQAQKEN

Beta-arrestin-1 = Beta-arrestin-1 (Homo sapiens, UniProt P49407); assay: beta-arrestin/AP2 interaction blockers, potency – biochemical, cherry pick 1, beta2-adaptin appendage, flow cytometry, dose response (AID 588783); format: functional
Hexokinase-1 [11] = molecular target: T3, Hexokinase-1; assay: SAR analysis of small molecule inhibitors of hexokinase domain containing I (HKDC1) in the hexokinase 1 selectivity assay. [Related pubchem assays (depositor defined):AID493160, AID493190]; format: functional
Hexokinase HKDC1 [12] = molecular target: T4, Hexokinase HKDC1; assay: SAR analysis of small molecule inhibitors of hexokinase domain containing I (HKDC1). [Related pubchem assays (depositor defined):AID493160, AID493190]; format: functional
HEK293 [13] = assay: cells; format: functional, cell-based; conditions: Homo sapiens
[14] = molecular target: T5, Nuclear receptor subfamily 0 group B member 1 (Homo sapiens, UniProt P51843); assay: Luminescence-based cell-based high throughput dose response assay for inhibitors of the orphan nuclear receptor subfamily 0, group B, member 1 (DAX1; NR0B1). [Related pubchem assays (depositor defined):AID504766, AID504790]; format: functional
T5 sequence (P51843 whole entry): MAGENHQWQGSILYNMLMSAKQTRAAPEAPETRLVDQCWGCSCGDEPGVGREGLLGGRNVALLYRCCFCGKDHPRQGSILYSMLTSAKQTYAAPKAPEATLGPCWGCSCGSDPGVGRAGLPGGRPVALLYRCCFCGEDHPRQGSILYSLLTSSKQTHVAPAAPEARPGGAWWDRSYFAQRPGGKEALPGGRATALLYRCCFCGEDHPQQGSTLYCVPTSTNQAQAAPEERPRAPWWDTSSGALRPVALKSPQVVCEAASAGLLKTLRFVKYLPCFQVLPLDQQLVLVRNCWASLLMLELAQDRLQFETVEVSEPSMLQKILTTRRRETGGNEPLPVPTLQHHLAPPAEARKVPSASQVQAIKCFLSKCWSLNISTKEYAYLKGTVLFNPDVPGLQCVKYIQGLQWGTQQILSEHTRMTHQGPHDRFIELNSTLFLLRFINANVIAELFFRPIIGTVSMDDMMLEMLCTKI

[15] = molecular target: Voltage-gated inwardly rectifying potassium channel KCNH2 (Homo sapiens, UniProt Q12809); conditions: Potency;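 also: confirmatory quantitative high-throughput screen measuring inhibition of hERG channel activity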
[16] = molecular target: T1, Short transient receptor potential channel 4; assay: calcium entry via TRPC4 opening agents – cell-based, HEK293 TRPC4/mu-opioid, Fluo-4 calcium, dose response (AID 434937); format: functional
[17] = molecular target: Delta-type opioid receptor (Homo sapiens, UniProt P41143); assay: Counterscreen for agonists of heterodimerization of the mu 1 (OPRM1) and delta 1 (OPRD1) opioid receptors: Luminescence-based cell-based high throughput dose response assay to identify agonists of OPRD1 homodimerization. [Related pubchem assays (depositor defined):AID504326, AID504355, AID504692, AID504904, AID504905]; format: functional
Mu-type opioid receptor = Mu-type opioid receptor (Homo sapiens, UniProt P35372); assay: Counterscreen for agonists of heterodimerization of the mu 1 (OPRM1) and delta 1 (OPRD1) opioid receptors: Luminescence-based cell-based high throughput dose response assay to identify agonists of OPRM1 homodimerization.; format: functional;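 also: U2OS cells expressing OPRM1 and beta-arrestin as split beta-galactosidase partners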
[18] = molecular target: 5-hydroxytryptamine receptor 5A (Homo sapiens, UniProt P47898); assay: Counterscreen for agonists of OPRM1-OPRD1 heterodimerization: luminescence-based cell-based high throughput dose response assay to identify agonists of 5-hydroxytryptamine (serotonin) 5A receptor (HTR5A). [Related pubchem assays (depositor defined):AID504326, AID504355, AID504692, AID504904, AID504905]; format: functional
Sequence of 5-hydroxytryptamine receptor 5A (P47898 whole entry): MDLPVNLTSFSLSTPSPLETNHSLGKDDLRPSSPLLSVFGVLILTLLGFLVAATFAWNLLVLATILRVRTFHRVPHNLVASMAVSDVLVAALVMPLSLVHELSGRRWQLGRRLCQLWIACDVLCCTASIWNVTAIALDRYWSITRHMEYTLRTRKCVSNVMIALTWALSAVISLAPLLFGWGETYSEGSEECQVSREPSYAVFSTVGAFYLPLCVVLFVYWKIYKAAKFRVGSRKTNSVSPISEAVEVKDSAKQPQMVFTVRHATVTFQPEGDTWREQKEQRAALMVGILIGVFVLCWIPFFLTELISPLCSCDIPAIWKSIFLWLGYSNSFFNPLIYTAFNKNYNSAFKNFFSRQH

Sequence of Beta-galactosidase (Q8VNN2 whole entry): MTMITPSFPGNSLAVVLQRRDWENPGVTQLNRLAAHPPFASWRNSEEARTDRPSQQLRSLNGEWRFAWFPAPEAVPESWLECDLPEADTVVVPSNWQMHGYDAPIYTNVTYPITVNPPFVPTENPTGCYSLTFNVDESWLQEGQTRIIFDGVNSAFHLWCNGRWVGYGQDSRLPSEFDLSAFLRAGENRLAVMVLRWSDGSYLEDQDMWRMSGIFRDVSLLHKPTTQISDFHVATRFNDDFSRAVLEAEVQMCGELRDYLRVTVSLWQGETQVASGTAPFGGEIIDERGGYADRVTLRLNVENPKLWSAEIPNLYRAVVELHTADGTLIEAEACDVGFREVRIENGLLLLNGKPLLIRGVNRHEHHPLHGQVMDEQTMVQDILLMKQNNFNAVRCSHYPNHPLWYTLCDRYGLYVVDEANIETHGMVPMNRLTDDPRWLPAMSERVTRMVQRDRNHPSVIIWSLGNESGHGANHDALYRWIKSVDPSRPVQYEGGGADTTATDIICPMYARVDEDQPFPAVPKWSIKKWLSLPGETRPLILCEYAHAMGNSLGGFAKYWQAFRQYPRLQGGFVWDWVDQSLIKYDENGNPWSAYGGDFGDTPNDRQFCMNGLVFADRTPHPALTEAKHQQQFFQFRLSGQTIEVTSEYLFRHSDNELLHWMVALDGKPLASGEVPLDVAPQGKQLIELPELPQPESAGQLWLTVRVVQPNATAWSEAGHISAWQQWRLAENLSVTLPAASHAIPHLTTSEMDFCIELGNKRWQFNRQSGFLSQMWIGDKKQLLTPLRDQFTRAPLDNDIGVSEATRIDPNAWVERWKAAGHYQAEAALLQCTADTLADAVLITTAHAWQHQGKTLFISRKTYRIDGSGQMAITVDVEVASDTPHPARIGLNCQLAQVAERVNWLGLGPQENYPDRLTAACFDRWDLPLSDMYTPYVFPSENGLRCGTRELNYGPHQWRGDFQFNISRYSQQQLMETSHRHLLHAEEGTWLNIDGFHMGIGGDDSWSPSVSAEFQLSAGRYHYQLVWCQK
Sequence of Mu-type opioid receptor (P35372 whole entry): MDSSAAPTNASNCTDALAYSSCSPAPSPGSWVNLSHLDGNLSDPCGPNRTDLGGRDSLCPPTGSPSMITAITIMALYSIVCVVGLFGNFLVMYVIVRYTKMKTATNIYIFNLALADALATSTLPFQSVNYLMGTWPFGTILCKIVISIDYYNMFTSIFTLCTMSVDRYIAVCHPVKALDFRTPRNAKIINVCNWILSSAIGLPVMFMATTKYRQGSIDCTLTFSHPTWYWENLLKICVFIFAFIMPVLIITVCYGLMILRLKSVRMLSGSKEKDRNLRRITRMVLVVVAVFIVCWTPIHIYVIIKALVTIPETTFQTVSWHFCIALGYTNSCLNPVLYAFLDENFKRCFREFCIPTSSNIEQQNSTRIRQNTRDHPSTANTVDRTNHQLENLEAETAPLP
Sequence of Voltage-gated inwardly rectifying potassium channel KCNH2 (Q12809 whole entry): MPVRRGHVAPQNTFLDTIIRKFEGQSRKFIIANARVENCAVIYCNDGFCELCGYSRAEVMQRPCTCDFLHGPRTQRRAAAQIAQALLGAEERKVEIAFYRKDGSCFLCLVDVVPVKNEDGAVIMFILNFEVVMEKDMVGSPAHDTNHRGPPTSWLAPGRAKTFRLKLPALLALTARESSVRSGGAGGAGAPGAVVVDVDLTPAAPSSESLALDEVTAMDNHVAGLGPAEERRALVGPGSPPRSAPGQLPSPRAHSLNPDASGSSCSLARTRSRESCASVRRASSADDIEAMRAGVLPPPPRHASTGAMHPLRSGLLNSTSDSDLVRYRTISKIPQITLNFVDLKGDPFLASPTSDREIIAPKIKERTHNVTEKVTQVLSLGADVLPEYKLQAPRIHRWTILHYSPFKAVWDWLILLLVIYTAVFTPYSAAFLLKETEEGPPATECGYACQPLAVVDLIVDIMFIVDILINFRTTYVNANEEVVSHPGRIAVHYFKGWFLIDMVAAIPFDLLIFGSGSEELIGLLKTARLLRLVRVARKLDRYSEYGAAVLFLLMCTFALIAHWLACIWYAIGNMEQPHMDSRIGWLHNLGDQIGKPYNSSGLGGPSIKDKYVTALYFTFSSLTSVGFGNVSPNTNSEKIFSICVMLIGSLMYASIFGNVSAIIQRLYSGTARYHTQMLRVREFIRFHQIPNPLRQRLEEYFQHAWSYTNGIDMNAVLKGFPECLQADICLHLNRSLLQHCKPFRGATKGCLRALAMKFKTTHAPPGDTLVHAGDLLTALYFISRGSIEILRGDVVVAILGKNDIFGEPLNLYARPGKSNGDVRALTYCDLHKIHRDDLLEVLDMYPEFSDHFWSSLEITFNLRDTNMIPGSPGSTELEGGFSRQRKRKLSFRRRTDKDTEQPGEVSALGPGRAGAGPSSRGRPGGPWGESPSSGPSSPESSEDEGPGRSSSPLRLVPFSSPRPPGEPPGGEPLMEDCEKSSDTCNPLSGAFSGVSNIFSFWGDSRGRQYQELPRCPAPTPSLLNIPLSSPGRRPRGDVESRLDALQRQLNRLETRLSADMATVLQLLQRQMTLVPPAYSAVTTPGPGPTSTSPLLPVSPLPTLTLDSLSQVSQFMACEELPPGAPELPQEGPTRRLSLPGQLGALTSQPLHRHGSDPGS
Sequence of Beta-arrestin-1 (P49407 whole entry, the tested form may be a part): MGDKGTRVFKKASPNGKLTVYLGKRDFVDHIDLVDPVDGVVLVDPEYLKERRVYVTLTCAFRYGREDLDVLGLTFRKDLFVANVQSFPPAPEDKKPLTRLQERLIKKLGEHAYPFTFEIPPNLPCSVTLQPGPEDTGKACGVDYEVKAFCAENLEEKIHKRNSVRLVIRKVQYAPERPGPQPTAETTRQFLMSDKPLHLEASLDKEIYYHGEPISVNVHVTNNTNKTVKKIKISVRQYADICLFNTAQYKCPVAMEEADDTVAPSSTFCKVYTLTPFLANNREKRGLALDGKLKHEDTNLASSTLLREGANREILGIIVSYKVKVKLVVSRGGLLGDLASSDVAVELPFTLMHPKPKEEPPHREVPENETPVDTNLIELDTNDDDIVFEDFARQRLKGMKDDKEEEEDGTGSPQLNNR
Sequence of Trypsin (P00761 whole entry): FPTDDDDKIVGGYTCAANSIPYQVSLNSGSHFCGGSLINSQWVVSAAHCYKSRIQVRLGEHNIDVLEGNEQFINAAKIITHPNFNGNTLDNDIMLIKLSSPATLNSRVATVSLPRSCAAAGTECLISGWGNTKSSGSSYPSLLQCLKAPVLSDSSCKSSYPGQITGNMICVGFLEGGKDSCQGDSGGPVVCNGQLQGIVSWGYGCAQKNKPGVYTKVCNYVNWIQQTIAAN
Sequence of Delta-type opioid receptor (P41143 whole entry): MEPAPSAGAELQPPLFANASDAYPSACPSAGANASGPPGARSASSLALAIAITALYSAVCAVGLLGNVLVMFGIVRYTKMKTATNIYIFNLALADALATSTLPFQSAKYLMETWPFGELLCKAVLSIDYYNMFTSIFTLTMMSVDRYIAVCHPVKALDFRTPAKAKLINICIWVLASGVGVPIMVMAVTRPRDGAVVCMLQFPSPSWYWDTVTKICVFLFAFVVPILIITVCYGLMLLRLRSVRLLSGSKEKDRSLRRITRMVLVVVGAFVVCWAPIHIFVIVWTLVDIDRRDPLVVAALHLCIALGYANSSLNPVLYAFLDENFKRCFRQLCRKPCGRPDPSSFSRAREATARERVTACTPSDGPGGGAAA
Sequence of CAAX prenyl protease 2 (Q9Y256 whole entry): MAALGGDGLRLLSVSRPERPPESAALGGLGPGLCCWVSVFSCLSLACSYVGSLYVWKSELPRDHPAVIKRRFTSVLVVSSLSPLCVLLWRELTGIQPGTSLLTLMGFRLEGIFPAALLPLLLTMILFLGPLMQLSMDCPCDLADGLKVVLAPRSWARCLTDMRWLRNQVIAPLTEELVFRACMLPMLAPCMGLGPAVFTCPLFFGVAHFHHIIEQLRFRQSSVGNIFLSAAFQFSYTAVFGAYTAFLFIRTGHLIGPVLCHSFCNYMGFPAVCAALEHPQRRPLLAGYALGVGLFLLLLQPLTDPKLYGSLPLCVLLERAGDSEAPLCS

Cc1cc(N2CCCCCC2)nc2ccc(F)cc12
IC50 [1]: 1.63 µM (active) | IC50 [2]: 3.99 µM (active)

Cc1ccc(-n2cc(CNCCCn3cccn3)c(-c3cccc(C)c3)n2)cc1
AC50 (A-375): 24.3 µM (active)

COc1ccc(/C=C\c2cc(OC)c(OC)cc2CC[N+](C)(C)C)cc1OC
AC50 (Trypsin): 11.6 µM (active) | AC50 (CAAX prenyl protease 2): 13.2 µM (active)

Cc1cccc(C(=O)Nc2ccc(C(=O)/C=C/c3ccncc3)cc2)c1
EC50 (Beta-galactosidase): > 40 µM (inactive) | IC50 [3]: 9.71 µM (active) | AC50 [4]: 3.41 µM (active) | AC50 [5]: 36.4 µM (active) | IC50 [6]: 3.51 µM (active) | EC50 (HEK293 [7]): > 59.6 µM (inactive) | EC50 (HEK293 [8]): > 59.6 µM (inactive)

COc1ccc(NC2c3ccccc3C(=O)N2c2ccccc2C)cc1 (centres undefined)
IC50 (Hexokinase-1 [9]): > 80 µM (inactive) | IC50 (Hexokinase HKDC1 [10]): > 80 µM (inactive)

CCN1/C(=C/c2ccc3cc(C)ccc3[n+]2C)Sc2ccc3sccc3c21
IC50 (Beta-arrestin-1): 3.12 µM (active)

O=C(Nc1cccc(C(F)(F)F)c1)c1cccc(NC(=O)c2ccc3ccccc3n2)c1
IC50 (Hexokinase-1 [11]): > 80 µM (inactive) | IC50 (Hexokinase HKDC1 [12]): > 80 µM (inactive)

COc1cccc(CNC(=O)CN(C)S(=O)(=O)c2ccc(Br)s2)c1
IC50 (HEK293 [13]): 24.6 µM (inactive) | IC50 [14]: > 67.5 µM (inactive)

CCCN(CCC)C1Cc2cc(OC)c(OC)cc2C1
AC50 [15]: 14.1 µM (inconclusive)

CN(C)C(CNC(=O)Cc1ccc([N+](=O)[O-])cc1)c1ccccc1 (centres undefined)
EC50 [16]: 0.531 µM (active) | EC50 [17]: > 92.5 µM (inactive) | EC50 (Mu-type opioid receptor): > 92.5 µM (inactive) | EC50 [18]: > 92.5 µM (inactive)
